According to patent publication US10940139B2, “Compounds that interact with the Ras superfamily for the treatment of cancers, inflammatory diseases, rasopathies, and fibrotic disease” (Shy Therapeutics LLC, priority 2017, dated 2021):

Assays:
Assay in all cases: Ras GTP binding domain inhibition assay (labeled GTP)
[1] = target: KRas G12C/Q61H double mutant (Homo sapiens (Human), UniProt P01116, G12C/Q61H); conditions: 20 μM compound; KRas G12C/Q61H double mutant; read-out: % Inhibition at 20 μM of K-Ras mutant and wild-type protein, KRas G12C Q61H
KRas G12C/Q61H double mutant, sequence (P01116-2 other isoform, or with tags, fused parts or gaps G12C/Q61H): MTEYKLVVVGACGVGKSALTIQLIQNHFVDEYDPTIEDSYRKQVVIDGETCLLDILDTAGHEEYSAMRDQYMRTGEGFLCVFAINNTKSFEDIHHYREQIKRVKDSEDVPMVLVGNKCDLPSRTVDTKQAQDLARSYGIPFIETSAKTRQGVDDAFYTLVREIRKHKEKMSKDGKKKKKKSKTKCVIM
In short: (§1)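 Fluorescence read-out of Cy3-/Cy5-GTP remaining bound to nickel-immobilized His-KRas after washes. Protein was coated overnight at 4° C, then exposed to compound for 3 h at room temperature before a 45 min labeled-GTP incubation.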

[2] = target: KRas G12D/Q61H double mutant (Homo sapiens (Human), UniProt P01116, G12D/Q61H); conditions: 20 μM compound; KRas G12D/Q61H double mutant; read-out: % Inhibition at 20 μM of K-Ras mutant and wild-type protein, KRas G12D Q61H
KRas G12D/Q61H double mutant, sequence (P01116-2 other isoform, or with tags, fused parts or gaps G12D/Q61H): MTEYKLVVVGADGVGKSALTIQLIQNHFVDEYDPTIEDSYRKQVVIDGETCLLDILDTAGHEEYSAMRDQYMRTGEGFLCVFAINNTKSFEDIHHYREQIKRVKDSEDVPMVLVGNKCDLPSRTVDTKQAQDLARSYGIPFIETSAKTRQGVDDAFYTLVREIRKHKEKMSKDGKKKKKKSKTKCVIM
In short: as §1

[3] = target: KRas Q61H mutant (Homo sapiens (Human), UniProt P01116, Q61H); conditions: 20 μM compound; KRas Q61H; read-out: % Inhibition at 20 μM of K-Ras mutant and wild-type protein, KRas Q61H
KRas Q61H mutant, sequence (P01116-2 other isoform, or with tags, fused parts or gaps Q61H): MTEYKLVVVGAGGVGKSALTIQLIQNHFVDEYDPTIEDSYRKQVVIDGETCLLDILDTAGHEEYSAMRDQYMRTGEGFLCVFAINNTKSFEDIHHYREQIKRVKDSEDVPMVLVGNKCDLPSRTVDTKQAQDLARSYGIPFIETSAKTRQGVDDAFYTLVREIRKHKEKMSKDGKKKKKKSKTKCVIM
In short: as §1

Row | SMILES | inhibition at 20 µM [1] [%] | inhibition at 20 µM [2] [%] | inhibition at 20 µM [3] [%]
1 | COc1nc(-c2ccccn2)nc2c(C3CCCCC3)csc12 [drawing 3479] | 0 | 1 to 25 | 1 to 25
2 | Cc1sc2c(O)nc(-c3ccccn3)nc2c1C(=O)O [drawing 3482] | 25 to 50 | 25 to 50 | 25 to 50
3 | Cc1c(C(=O)N2CCN(c3ccccc3)CC2)sc2c(O)nc(-c3ccccn3)nc12 [drawing 3483] | 51 to 75 | 51 to 75 | 51 to 75
4 | Cc1sc2nc(-c3ccccn3)nc(N)c2c1Br [drawing 3484] | 25 to 50 | 25 to 50 | 25 to 50
5 | COC(=O)c1c(C)sc2nc(-c3ccccn3)nc(N)c12 [drawing 3485] | 25 to 50 | 51 to 75 | 25 to 50
6 | Oc1nc(-c2ccccn2)nc2c(CC3CCNCC3)csc12 [drawing 3486] | 51 to 75 | 51 to 75 | 51 to 75
7 | Oc1nc(-c2ccccn2)nc2c(CC3CCCNC3)csc12 (stereo not drawn) [drawing 3488] | 51 to 75 | 25 to 50 | 51 to 75
8 | COc1nc(-c2ccccn2)nc2c(C3CC3)csc12 [drawing 3489] | 0 | 1 to 25 | 0
9 | COc1cnc(C2(N)CCCC2)nc1O [drawing 3490] | 1 to 25 | 1 to 25 | 0
10 | COc1cnc(C(C)(C)N)nc1O [drawing 3491] | 1 to 25 | 1 to 25 | 0
11 | COC(=O)c1c(C)sc2c(N)nc(-c3ccccn3)nc12 [drawing 3499] | 51 to 75 | 51 to 75 | 76 to 100
12 | O=C(NCCc1ccncn1)c1csc2nc(-c3ccccn3)nc(N3CCOCC3)c12 [drawing 3500] | 25 to 50 | 25 to 50 | 51 to 75
13 | CC(C)c1nn(C)cc1-c1csc2c(O)nc(-c3ccccn3)nc12 [drawing 3501] | 51 to 75 | 51 to 75 | 51 to 75
14 | N#Cc1cccc(-c2csc3c(O)nc(-c4ccccn4)nc23)c1 [drawing 3503] | 1 to 25 | 1 to 25 | 25 to 50
15 | Oc1nc(-c2ccccn2)nc2c(-c3cncnc3)csc12 [drawing 3504] | 1 to 25 | 1 to 25 | 25 to 50
16 | Cc1c(-c2csc3c(O)nc(-c4ccccn4)nc23)cnn1C [drawing 3505] | 51 to 75 | 51 to 75 | 76 to 100
17 | Oc1nc(-c2ccccn2)nc2c(-c3cncc(C(F)F)c3)csc12 [drawing 3507] | 1 to 25 | 1 to 25 | 1 to 25
18 | Cc1sc2c(O)nc(-c3ccccn3)nc2c1C(=O)N1CCN(c2ccccc2)CC1 [drawing 3508] | 51 to 75 | 25 to 50 | 51 to 75
19 | Oc1nc(-c2ccccn2)nc2c(C3CCCCC3)csc12 [drawing 3511] | 25 to 50 | 25 to 50 | 51 to 75
20 | Oc1nc(-c2ccccn2)nc2c(CC3CNC3)csc12 [drawing 3519] | 51 to 75 | 25 to 50 | 51 to 75
21 | COc1cnc(CNC(=O)c2csc3c(O)nc(-c4ccccn4)nc23)[nH]c1=O [drawing 3520] | 25 to 50 | 1 to 25 | 0
22 | COc1cnc(CNC(=O)c2cc3nc(-c4ccccn4)nc(O)c3s2)[nH]c1=O [drawing 3521] | 51 to 75 | 25 to 50 | 51 to 75
23 | Cc1sc2c(O)nc(-c3ccccn3)nc2c1Br [drawing 3522] | 25 to 50 | 25 to 50 | 1 to 25
24 | COc1cnc(CNC(=O)c2c(C)sc3c(O)nc(-c4ccccn4)nc23)[nH]c1=O [drawing 3523] | 1 to 25 | 0 | 0
25 | COc1cnc(CNC(=O)c2sc3c(O)nc(-c4ccccn4)nc3c2C)[nH]c1=O [drawing 3524] | 25 to 50 | 1 to 25 | 0

Row | SMILES | inhibition at 20 µM [1] [%] | inhibition at 20 µM [2] [%] | inhibition at 20 µM [3] [%]
26 | O=C(c1csc2c(O)nc(-c3ccccn3)nc12)N1CCNC(c2ccc(Cl)cc2)C1 (stereo not drawn) [drawing 3525] | 51 to 75 | 25 to 50 | 51 to 75
27 | Cn1cnc(-c2nc(O)c3c(-c4ccccc4)c(-c4ccncc4)sc3n2)c1 [drawing 3528] | 1 to 25 | 1 to 25 | 1 to 25
28 | COCCNc1nc(-c2ccccn2)nc(-c2cccc(OCCN(C)C)c2)c1Oc1ccccc1 [drawing 3529] | 1 to 25 | 1 to 25 | 1 to 25
29 | OCC1(c2ccc(-c3nc(-c4ccccn4)nc(-c4ccc(C5(CO)CC5)cc4)c3Oc3ccccc3)cc2)CC1 [drawing 3532] | 1 to 25 | 1 to 25 | 1 to 25
30 | Cn1ccnc1-c1nc(O)c2c(-c3ccccc3)c(-c3ccccc3)sc2n1 [drawing 3536] | 1 to 25 | 1 to 25 | 1 to 25
31 | Cn1cnc(-c2nc(O)c3c(-c4ccccc4)c(-c4ccc(CNC(=O)OC(C)(C)C)cc4)sc3n2)c1 [drawing 3537] | 1 to 25 | 1 to 25 | 1 to 25
32 | Nc1nc(O)c2sc(-c3cccc(C(=O)NC4CCNC4=O)c3)cc2n1 (stereo not drawn) [drawing 3542] | 1 to 25 | 1 to 25 | 0
33 | Nc1nc(O)c2sc(-c3cccc(C(=O)N4CCC(O)C4)c3)cc2n1 (stereo not drawn) [drawing 3543] | 1 to 25 | 1 to 25 | 1 to 25
34 | NC(=O)C1CCCN1C(=O)c1cccc(-c2cc3nc(N)nc(O)c3s2)c1 (stereo not drawn) [drawing 3544] | 1 to 25 | 0 | 1 to 25
35 | Nc1nc(O)c2sc(-c3cccc(C(=O)NCc4ncc[nH]4)c3)cc2n1 [drawing 3545] | 1 to 25 | 0 | 0
36 | Nc1nc(O)c2sc(-c3cccc(C(=O)NCc4cccc(O)n4)c3)cc2n1 [drawing 3546] | 1 to 25 | 0 | 0
37 | COC(=O)c1nc(-c2ccccn2)nc(O)c1O [drawing 3547] | 76 to 100 | 51 to 75 | 51 to 75
38 | Oc1nc(-c2ccccn2)nc2c(-c3ccccc3)c(-c3ccncc3)sc12 [drawing 3548] | 0 | 0 | 51 to 75
39 | Cn1cnc(-c2nc(O)c3sc(-c4ccncc4)c(-c4ccccc4)c3n2)c1 [drawing 3549] | 1 to 25 | 0 | 1 to 25
40 | COCC(C)Nc1nc(-c2ccccn2)nc(C(=O)NCCCc2c[nH]cn2)c1Oc1ccccc1 (stereo not drawn) [drawing 3550] | 1 to 25 | 1 to 25 | 1 to 25
41 | Nc1nc(-c2ccccn2)nc(C(=O)NCCc2ccncc2)c1Oc1ccccc1 [drawing 3551] | 1 to 25 | 25 to 50 | 25 to 50
42 | COc1nc(-c2ccccn2)nc(Oc2cccc(C(F)(F)F)c2)c1OC [drawing 3552] | 0 | 1 to 25 | 0
43 | Oc1nc(-c2ccccn2)nc2c(Br)c(-c3ccccc3)sc12 [drawing 3553] | 1 to 25 | 0 | 1 to 25
44 | CC(C)(C)c1sc2c(O)nc(-c3ccccn3)nc2c1Br [drawing 3554] | 25 to 50 | 25 to 50 | 51 to 75
45 | Cc1ccc(-c2cc3nc(-c4ccccn4)nc(O)c3s2)cc1 [drawing 3555] | 1 to 25 | 0 | 0
46 | Oc1nc(-c2ccccn2)nc2cc(-c3ccccc3Cl)sc12 [drawing 3556] | 25 to 50 | 1 to 25 | 51 to 75
47 | Oc1nc(-c2ccccn2)nc2cc(-c3ccc(-c4ccccc4)cc3)sc12 [drawing 3559] | 1 to 25 | 1 to 25 | 1 to 25
48 | Cc1ccc(-c2csc3c(O)nc(-c4ccccn4)nc23)cc1 [drawing 3560] | 1 to 25 | 1 to 25 | 1 to 25
49 | COc1ccc(-c2cc3nc(-c4ccccn4)nc(O)c3s2)cc1 [drawing 3563] | 1 to 25 | 1 to 25 | 1 to 25
50 | Oc1nc(-c2ccccn2)nc2cc(-c3cccc(Br)c3)sc12 [drawing 3564] | 1 to 25 | 25 to 50 | 25 to 50
